Reference: US20100267561A1, “HERBICIDAL PYRIDAZINONE DERIVATIVES” (priority 2007, published 2010)

What was measured:
Assay in all cases: Test B pre-/postemergence plant response
Assay type in all cases: in vivo
[1] = system: morningglory (Ipomoea coccinea)
Outline: (§1)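 Visual scoring from 0 (no effect) to 100 (complete control) against untreated controls was done 13 to 15 days after greenhouse treatment. Chemicals were formulated in a surfactant-containing non-phytotoxic solvent and applied to soil preemergence or to 1- to 4-leaf (2-18 cm) plants postemergence.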

[2] = system: Russian thistle (Salsola iberica); details: Preemergence
Outline: as §1

[3] = system: bermudagrass (Cynodon dactylon); details: for Bermudagrass plant response rating: 8 g ai/ha
Outline: as §1

[4] = system: cocklebur (Xanthium strumarium); details: for Cocklebur plant response rating: 8 g ai/ha
Outline: as §1

soybean (Glycine max) = system: soybean (Glycine max)
Outline: as §1

[5] = system: blackgrass (Alopecurus myosuroides); details: for Blackgrass plant response rating: 8 g ai/ha
Outline: as §1

[6] = system: yellow nutsedge (Cyperus esculentus)
Outline: as §1

[7] = system: catchweed bedstraw (Galium aparine); details: Preemergence; for Galium plant response rating: scale 0 to 100
Outline: as §1

corn (Zea mays) = system: corn (Zea mays)
Outline: as §1

[8] = system: wheat (Triticum aestivum)
Outline: as §1

[9] = system: lambsquarters (Chenopodium album)
Outline: as §1

[10] = system: surinam grass (Brachiaria decumbens)
Outline: as §1

[11] = system: downy bromegrass (Bromus tectorum); details: for Bromegrass, Downy plant response rating: 8 g ai/ha
Outline: as §1

kochia (Kochia scoparia) = details: for Plant response rating, Kochia: Postemergence
Outline: as §1

[12] = Preemergence, 31 g ai/ha, scale 0 to 100 (0 no effect, 100 complete control)
[13] = Preemergence, 62 g ai/ha, 0 to 100 scale, 0 no effect, 100 complete control
[14] = Preemergence, 8 g ai/ha, scale 0 to 100
[15] = Preemergence, 16 g ai/ha, scale 0 to 100
[16] = 31 g ai/ha, scale 0 to 100 (0 no effect, 100 complete control)
[17] = 62 g ai/ha, 0 to 100 scale, 0 no effect, 100 complete control
[18] = Preemergence, scale 0 to 100 (0 no effect, 100 complete control)
[19] = Preemergence, 16 g ai/ha, scale 0 to 100 (0 no effect, 100 complete control)
[20] = 8 g ai/ha, postemergence, 0-100 scale
[21] = Postemergence, 16 g ai/ha, scale 0 to 100
[22] = Postemergence, 31 g ai/ha, scale 0 to 100, 0 no effect, 100 complete control
[23] = Postemergence, 62 g ai/ha, scale 0 to 100, 0 no effect, 100 complete control
[24] = Preemergence, 31 g ai/ha, 0 to 100 scale, 0 no effect, 100 complete control
[25] = Preemergence, 62 g ai/ha, scale 0 to 100

C#CCOC(=O)Oc1cnn(C)c(=O)c1-n1nc(-c2ccc(Cl)cc2)cc1C [Compound 58]
55: Plant response rating, Corn (corn (Zea mays); [12])
0: Plant response rating, Morningglory [1, 12] | Plant response rating, Morningglory [1, 13] | Morningglory plant response rating [1, 14] | Morningglory plant response rating [1, 15] | Russian Thistle plant response rating ([2]; 8 g ai/ha, scale 0 to 100) | Russian Thistle plant response rating ([2]; 16 g ai/ha, scale 0 to 100) | Plant response rating, Cocklebur [4, 19] | Plant response rating, Cocklebur [4, 12] | Plant response rating, Cocklebur [4, 13] | Cocklebur plant response rating ([4]; Preemergence, scale 0 to 100) | Plant response rating, Soybean (soybean (Glycine max); [12]) | Plant response rating, Soybean (soybean (Glycine max); [13]) | Soybean plant response rating (soybean (Glycine max); [14]) | Soybean plant response rating (soybean (Glycine max); [15]) | Plant response rating, Nutsedge, Yellow [6, 12] | Plant response rating, Nutsedge, Yellow [6, 13] | Nutsedge, Yellow plant response rating [6, 14] | Nutsedge, Yellow plant response rating [6, 15] | Plant response rating, Galium [7, 16] | Plant response rating, Galium [7, 17] | Galium plant response rating ([7]; 8 g ai/ha) | Galium plant response rating ([7]; 16 g ai/ha) | Corn plant response rating (corn (Zea mays); [14]) | Corn plant response rating (corn (Zea mays); [15]) | Wheat plant response rating [8, 15] | Lambsquarters plant response rating [9, 14] | Lambsquarters plant response rating [9, 15] | Bromegrass, Downy plant response rating ([11]; Preemergence, scale 0 to 100)
65: Plant response rating, Bromegrass, Downy [11, 12]
85: Plant response rating, Bromegrass, Downy [11, 13]
80: Blackgrass plant response rating ([5]; Preemergence, scale 0 to 100) | Plant response rating, Corn (corn (Zea mays); [13]) | Plant response rating, Wheat [8, 13]
60: Plant response rating, Russian Thistle [2, 17]
20: Plant response rating, Russian Thistle [2, 16]
98: Plant response rating, Surinam Grass [10, 12] | Surinam Grass plant response rating [10, 15]
100: Bermudagrass plant response rating [3, 18] | Plant response rating, Bermudagrass [3, 19] | Plant response rating, Bermudagrass [3, 12] | Plant response rating, Bermudagrass [3, 13] | Plant response rating, Blackgrass [5, 19] | Plant response rating, Blackgrass [5, 12] | Plant response rating, Blackgrass [5, 13] | Plant response rating, Lambsquarters [9, 13] | Plant response rating, Surinam Grass [10, 13]
95: Plant response rating, Lambsquarters [9, 12] | Surinam Grass plant response rating [10, 14]
40: Plant response rating, Wheat [8, 12]

Cn1ncc(O)c(-c2nn(-c3ccc(Cl)cc3)cc2Cl)c1=O [Compound 28]
65: Bermudagrass plant response rating ([3]; postemergence, 0-100 scale) | Surinam Grass plant response rating [10, 20] | Plant response rating, Surinam Grass [10, 21] | Plant response rating, Surinam Grass [10, 19]
70: Plant response rating, Blackgrass [5, 21]
55: Plant response rating, Corn (corn (Zea mays); [24])
50: Plant response rating, Bromegrass, Downy [11, 24] | Plant response rating, Bromegrass, Downy [11, 25]
100: Plant response rating, Bermudagrass [3, 22] | Plant response rating, Bermudagrass [3, 23] | Plant response rating, Bermudagrass [3, 19] | Plant response rating, Bermudagrass [3, 24] | Plant response rating, Bermudagrass [3, 25] | Plant response rating, Blackgrass [5, 23] | Plant response rating, Surinam Grass [10, 25]
40: Plant response rating, Corn (corn (Zea mays); [23]) | Plant response rating, Wheat [8, 21] | Plant response rating, Bromegrass, Downy [11, 19]
95: Plant response rating, Blackgrass [5, 22] | Plant response rating, Lambsquarters [9, 19] | Plant response rating, Lambsquarters [9, 24]
10: Plant response rating, Bromegrass, Downy [11, 22]
60: Blackgrass plant response rating ([5]; postemergence, 0-100 scale)
0: Kochia plant response rating (kochia (Kochia scoparia); [20]) | Plant response rating, Kochia (kochia (Kochia scoparia); 16 g ai/ha, scale 0 to 100) | Plant response rating, Kochia (kochia (Kochia scoparia); 31 g ai/ha, scale 0 to 100, 0 no effect, 100 complete control) | Plant response rating, Kochia (kochia (Kochia scoparia); 62 g ai/ha, scale 0 to 100, 0 no effect, 100 complete control) | Morningglory plant response rating [1, 20] | Plant response rating, Morningglory [1, 21] | Plant response rating, Morningglory [1, 22] | Plant response rating, Morningglory [1, 23] | Plant response rating, Morningglory [1, 19] | Plant response rating, Morningglory [1, 24] | Plant response rating, Morningglory [1, 25] | Morningglory plant response rating [1, 14] | Plant response rating, Russian Thistle ([2]; 16 g ai/ha, scale 0 to 100 (0 no effect, 100 complete control)) | Plant response rating, Russian Thistle ([2]; 31 g ai/ha, 0 to 100 scale, 0 no effect, 100 complete control) | Plant response rating, Russian Thistle ([2]; 62 g ai/ha, scale 0 to 100) | Russian Thistle plant response rating ([2]; 8 g ai/ha, scale 0 to 100) | Bermudagrass plant response rating [3, 18] | Cocklebur plant response rating ([4]; postemergence, 0-100 scale) | Plant response rating, Cocklebur [4, 21] | Plant response rating, Cocklebur [4, 22] | Plant response rating, Cocklebur [4, 23] | Plant response rating, Cocklebur [4, 19] | Plant response rating, Cocklebur [4, 24] | Plant response rating, Cocklebur [4, 25] | Cocklebur plant response rating ([4]; Preemergence, scale 0 to 100) | Soybean plant response rating (soybean (Glycine max); [20]) | Plant response rating, Soybean (soybean (Glycine max); [21]) | Plant response rating, Soybean (soybean (Glycine max); [24]) | Plant response rating, Soybean (soybean (Glycine max); [25]) | Nutsedge, Yellow plant response rating [6, 20] | Plant response rating, Nutsedge, Yellow [6, 21] | Plant response rating, Nutsedge, Yellow [6, 22] | Plant response rating, Nutsedge, Yellow [6, 23] | Plant response rating, Nutsedge, Yellow [6, 19] | Plant response rating, Nutsedge, Yellow [6, 24] | Plant response rating, Nutsedge, Yellow [6, 25] | Nutsedge, Yellow plant response rating [6, 14] | Corn plant response rating (corn (Zea mays); [20]) | Plant response rating, Corn (corn (Zea mays); [21]) | Plant response rating, Corn (corn (Zea mays); [22]) | Plant response rating, Corn (corn (Zea mays); [19]) | Corn plant response rating (corn (Zea mays); [14]) | Wheat plant response rating [8, 14] | Lambsquarters plant response rating [9, 20] | Plant response rating, Lambsquarters [9, 21] | Plant response rating, Lambsquarters [9, 22] | Plant response rating, Lambsquarters [9, 23] | Surinam Grass plant response rating [10, 14] | Bromegrass, Downy plant response rating ([11]; postemergence, 0-100 scale)
20: Plant response rating, Soybean (soybean (Glycine max); [23]) | Wheat plant response rating [8, 20] | Plant response rating, Bromegrass, Downy [11, 23] | Bromegrass, Downy plant response rating ([11]; Preemergence, scale 0 to 100)
90: Plant response rating, Corn (corn (Zea mays); [25]) | Plant response rating, Wheat [8, 23] | Plant response rating, Wheat [8, 25] | Plant response rating, Surinam Grass [10, 23]
5: Plant response rating, Wheat [8, 19] | Plant response rating, Bromegrass, Downy [11, 21]
15: Plant response rating, Wheat [8, 24]
98: Plant response rating, Lambsquarters [9, 25] | Plant response rating, Surinam Grass [10, 24]
80: Plant response rating, Bermudagrass [3, 21] | Lambsquarters plant response rating [9, 14]
